Measured values: PMC9856672, “SGC-CAMKK2-1: A Chemical Probe for CAMKK2” (Cells, 2023)

Legend:
[1] = molecular target: T1, RIPK2 (Homo sapiens, UniProt O43353); assay: KINOMEscan 1 μM, RIPK2; assay type: binding; details: 1000 nM; Entrez RIPK2; read-out: Percent Control
T1 construct: purchased Eurofins DiscoverX KINOMEscan
Excerpt: (§1) Supplement cells-12-00287-s001.zip/File S2. KinomeScan data for the CAMKK2 probe and negative control.xlsx, sheet "SGC-CAMKK2-1" | column: Percent Control

[2] = molecular target: T2, CSF1R-autoinhibited (Homo sapiens, UniProt P07333); assay: KINOMEscan 1 μM, CSF1R-autoinhibited; assay type: binding; details: 1000 nM; Entrez CSF1R; read-out: Percent Control
T2 construct: purchased Eurofins DiscoverX KINOMEscan
Excerpt: as §1

[3] = molecular target: T3, FYN (Homo sapiens, UniProt P06241); assay: KINOMEscan 1 μM, FYN; assay type: binding; details: 1000 nM; Entrez FYN; read-out: Percent Control
T3 construct: purchased Eurofins DiscoverX KINOMEscan
Excerpt: as §1

[4] = molecular target: T4, CSNK1A1L (Homo sapiens, UniProt Q8N752); assay: KINOMEscan 1 μM, CSNK1A1L; assay type: binding; details: 1000 nM; Entrez CSNK1A1L; read-out: Percent Control
T4 construct: purchased Eurofins DiscoverX KINOMEscan
Excerpt: as §1

[5] = system: FLT3(ITD,D835V); assay: KINOMEscan 1 μM, FLT3(ITD,D835V); assay type: binding, human; details: 1000 nM; Entrez FLT3
Excerpt: as §1

[6] = molecular target: T5, AAK1 (Homo sapiens, UniProt Q2M2I8); assay: KINOMEscan 1 μM, AAK1; assay type: binding; details: 1000 nM; Entrez AAK1; read-out: Percent Control
T5 construct: purchased Eurofins DiscoverX KINOMEscan
Excerpt: as §1

[7] = molecular target: T6, CSK (Homo sapiens, UniProt P41240); assay: KINOMEscan 1 μM, CSK; assay type: binding; details: 1000 nM; Entrez CSK; read-out: Percent Control
T6 construct: purchased Eurofins DiscoverX KINOMEscan
Excerpt: as §1

[8] = molecular target: T7, LIMK1 (Homo sapiens, UniProt P53667); assay: KINOMEscan 1 μM, LIMK1; assay type: binding; details: 1000 nM; Entrez LIMK1; read-out: Percent Control
T7 construct: purchased Eurofins DiscoverX KINOMEscan
Excerpt: as §1

[9] = molecular target: T8, ALK (Homo sapiens, UniProt Q9UM73); assay: KINOMEscan 1 μM, ALK; assay type: binding; details: 1000 nM; Entrez ALK; read-out: Percent Control
T8 construct: purchased Eurofins DiscoverX KINOMEscan
T8 sequence (Q9UM73 19-1620): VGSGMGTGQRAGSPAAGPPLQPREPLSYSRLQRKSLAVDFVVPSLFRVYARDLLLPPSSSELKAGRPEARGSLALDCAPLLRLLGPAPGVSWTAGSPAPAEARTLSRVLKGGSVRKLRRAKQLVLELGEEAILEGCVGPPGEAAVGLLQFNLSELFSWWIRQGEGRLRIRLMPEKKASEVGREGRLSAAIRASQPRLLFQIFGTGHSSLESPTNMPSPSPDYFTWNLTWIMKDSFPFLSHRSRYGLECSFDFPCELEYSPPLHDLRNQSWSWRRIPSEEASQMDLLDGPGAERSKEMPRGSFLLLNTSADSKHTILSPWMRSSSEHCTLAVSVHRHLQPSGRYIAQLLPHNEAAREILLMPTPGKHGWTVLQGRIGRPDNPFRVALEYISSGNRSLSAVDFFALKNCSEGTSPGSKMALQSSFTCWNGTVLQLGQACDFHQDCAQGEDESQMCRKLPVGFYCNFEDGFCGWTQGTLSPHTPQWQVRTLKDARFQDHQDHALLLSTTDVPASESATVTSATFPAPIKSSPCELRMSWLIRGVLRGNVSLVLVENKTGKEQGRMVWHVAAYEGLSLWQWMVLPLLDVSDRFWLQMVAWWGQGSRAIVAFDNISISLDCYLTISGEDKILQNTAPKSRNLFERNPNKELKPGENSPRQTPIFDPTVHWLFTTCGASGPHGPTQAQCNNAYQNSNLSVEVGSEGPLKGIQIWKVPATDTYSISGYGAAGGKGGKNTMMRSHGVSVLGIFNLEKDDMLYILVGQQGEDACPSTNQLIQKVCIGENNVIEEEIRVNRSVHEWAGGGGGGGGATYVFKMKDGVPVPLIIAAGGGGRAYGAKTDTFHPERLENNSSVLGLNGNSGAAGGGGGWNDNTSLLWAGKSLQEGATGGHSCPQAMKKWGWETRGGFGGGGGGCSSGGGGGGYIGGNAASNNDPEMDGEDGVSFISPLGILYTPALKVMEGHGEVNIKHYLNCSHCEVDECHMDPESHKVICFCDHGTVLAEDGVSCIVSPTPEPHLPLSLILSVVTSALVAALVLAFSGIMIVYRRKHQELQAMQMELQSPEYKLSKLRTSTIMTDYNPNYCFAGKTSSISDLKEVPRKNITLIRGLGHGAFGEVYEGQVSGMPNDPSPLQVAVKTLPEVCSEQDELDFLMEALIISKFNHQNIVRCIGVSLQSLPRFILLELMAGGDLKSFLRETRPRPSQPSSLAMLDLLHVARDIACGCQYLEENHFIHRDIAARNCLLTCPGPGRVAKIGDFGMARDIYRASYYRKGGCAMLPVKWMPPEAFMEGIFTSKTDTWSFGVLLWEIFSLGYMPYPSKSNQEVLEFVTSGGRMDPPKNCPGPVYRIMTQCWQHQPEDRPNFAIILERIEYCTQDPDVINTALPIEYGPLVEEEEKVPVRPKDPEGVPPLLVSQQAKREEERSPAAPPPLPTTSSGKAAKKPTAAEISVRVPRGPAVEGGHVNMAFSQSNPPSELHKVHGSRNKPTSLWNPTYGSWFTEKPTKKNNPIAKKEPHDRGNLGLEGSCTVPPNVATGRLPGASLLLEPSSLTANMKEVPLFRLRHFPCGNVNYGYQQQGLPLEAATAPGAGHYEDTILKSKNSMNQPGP
Excerpt: as §1

[10] = molecular target: T9, BMX (Homo sapiens, UniProt P51813); assay: KINOMEscan 1 μM, BMX; assay type: binding; details: 1000 nM; Entrez BMX; read-out: Percent Control
T9 construct: purchased Eurofins DiscoverX KINOMEscan
T9 sequence (P51813 whole entry): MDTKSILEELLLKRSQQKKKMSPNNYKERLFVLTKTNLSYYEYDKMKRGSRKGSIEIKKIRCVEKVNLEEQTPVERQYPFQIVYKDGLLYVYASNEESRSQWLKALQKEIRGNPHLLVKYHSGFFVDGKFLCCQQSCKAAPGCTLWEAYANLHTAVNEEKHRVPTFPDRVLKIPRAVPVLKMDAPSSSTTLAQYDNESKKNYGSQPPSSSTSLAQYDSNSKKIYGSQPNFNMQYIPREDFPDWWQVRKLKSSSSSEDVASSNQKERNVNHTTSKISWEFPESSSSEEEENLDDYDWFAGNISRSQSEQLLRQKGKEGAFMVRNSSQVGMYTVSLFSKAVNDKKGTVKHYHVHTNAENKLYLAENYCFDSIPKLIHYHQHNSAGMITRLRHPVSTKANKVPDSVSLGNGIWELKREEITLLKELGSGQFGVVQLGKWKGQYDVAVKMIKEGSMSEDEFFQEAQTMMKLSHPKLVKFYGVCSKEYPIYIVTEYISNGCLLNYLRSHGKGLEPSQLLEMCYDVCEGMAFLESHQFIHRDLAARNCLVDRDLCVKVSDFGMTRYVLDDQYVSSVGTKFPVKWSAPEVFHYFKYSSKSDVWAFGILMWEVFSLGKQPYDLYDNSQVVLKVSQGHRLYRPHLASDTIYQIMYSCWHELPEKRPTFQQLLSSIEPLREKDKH
Excerpt: as §1

[11] = molecular target: T10, HCK (Homo sapiens, UniProt P08631); assay: KINOMEscan 1 μM, HCK; assay type: binding; details: 1000 nM; Entrez HCK; read-out: Percent Control
T10 construct: purchased Eurofins DiscoverX KINOMEscan
Excerpt: as §1

[12] = molecular target: T11, JNK3 (Homo sapiens, UniProt P53779); assay: KINOMEscan 1 μM, JNK3; assay type: binding; details: 1000 nM; Entrez MAPK10; read-out: Percent Control
T11 construct: purchased Eurofins DiscoverX KINOMEscan
T11 sequence (P53779 whole entry): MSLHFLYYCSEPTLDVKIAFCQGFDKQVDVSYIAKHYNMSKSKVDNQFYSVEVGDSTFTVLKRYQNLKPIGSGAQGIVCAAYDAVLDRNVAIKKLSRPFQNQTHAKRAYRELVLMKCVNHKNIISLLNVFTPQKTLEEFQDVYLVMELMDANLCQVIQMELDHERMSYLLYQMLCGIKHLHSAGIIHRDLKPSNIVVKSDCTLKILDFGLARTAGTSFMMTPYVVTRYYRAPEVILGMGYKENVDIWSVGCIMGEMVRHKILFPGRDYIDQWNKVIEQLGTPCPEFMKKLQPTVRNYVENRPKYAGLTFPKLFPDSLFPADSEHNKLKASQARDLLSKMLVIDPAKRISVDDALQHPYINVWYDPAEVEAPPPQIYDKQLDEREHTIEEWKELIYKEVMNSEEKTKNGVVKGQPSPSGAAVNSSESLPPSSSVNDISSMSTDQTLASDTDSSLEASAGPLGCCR
Excerpt: as §1

[13] = molecular target: T12, MKK7 (Homo sapiens, UniProt O14733); assay: KINOMEscan 1 μM, MKK7; assay type: binding; details: 1000 nM; Entrez MAP2K7; read-out: Percent Control
T12 construct: purchased Eurofins DiscoverX KINOMEscan
Excerpt: as §1

[14] = molecular target: T13, NEK7 (Homo sapiens, UniProt Q8TDX7); assay: KINOMEscan 1 μM, NEK7; assay type: binding; details: 1000 nM; Entrez NEK7; read-out: Percent Control
T13 construct: purchased Eurofins DiscoverX KINOMEscan
Excerpt: as §1

[15] = molecular target: T14, PAK7 (Homo sapiens, UniProt Q9P286); assay: DiscoverX KINOMEscan binding assay at 1 μM, PAK7; details: Compound Concentration 1000 nM, read-out: Percent Control
T14 construct: purchased Eurofins DiscoverX KINOMEscan
T14 sequence (Q9P286 whole entry): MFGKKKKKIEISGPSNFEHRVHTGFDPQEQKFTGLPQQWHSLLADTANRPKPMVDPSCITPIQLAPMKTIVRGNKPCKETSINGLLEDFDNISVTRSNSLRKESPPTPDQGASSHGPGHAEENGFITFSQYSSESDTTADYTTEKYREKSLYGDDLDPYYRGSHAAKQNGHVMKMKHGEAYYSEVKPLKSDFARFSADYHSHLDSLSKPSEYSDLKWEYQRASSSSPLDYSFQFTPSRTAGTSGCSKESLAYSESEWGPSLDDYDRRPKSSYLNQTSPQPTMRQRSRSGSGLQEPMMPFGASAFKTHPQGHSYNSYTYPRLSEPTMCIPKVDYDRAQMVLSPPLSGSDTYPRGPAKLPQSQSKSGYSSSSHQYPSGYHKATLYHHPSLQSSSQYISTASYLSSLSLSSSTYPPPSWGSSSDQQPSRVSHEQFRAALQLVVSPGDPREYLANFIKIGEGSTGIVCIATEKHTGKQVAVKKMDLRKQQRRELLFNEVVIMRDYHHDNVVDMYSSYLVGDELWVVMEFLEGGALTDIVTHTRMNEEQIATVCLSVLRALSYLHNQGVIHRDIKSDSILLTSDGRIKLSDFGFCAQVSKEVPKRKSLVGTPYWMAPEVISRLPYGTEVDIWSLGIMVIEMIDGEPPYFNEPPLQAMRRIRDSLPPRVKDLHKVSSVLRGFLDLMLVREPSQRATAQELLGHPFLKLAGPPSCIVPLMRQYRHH
Excerpt: as §1

[16] = molecular target: T15, PIK3CA(M1043I) (Homo sapiens, UniProt P42336, M1043I); assay: DiscoverX KINOMEscan binding assay at 1 μM, PIK3CA(M1043I); details: Compound Concentration 1000 nM, read-out: Percent Control
T15 construct: purchased Eurofins DiscoverX KINOMEscan
Excerpt: as §1

[17] = molecular target: T16, HIPK3 (Homo sapiens, UniProt Q9H422); assay: KINOMEscan at 1 μM, HIPK3; assay type: binding; details: 1000 nM, read-out: Percent Control
T16 construct: purchased Eurofins DiscoverX KINOMEscan
Excerpt: (§2) Supplement cells-12-00287-s001.zip/File S2. KinomeScan data for the CAMKK2 probe and negative control.xlsx, sheet "SGC-CAMKK2-1N" | column: Percent Control

[18] = molecular target: T17, CTK (Homo sapiens, UniProt P42679); assay: KINOMEscan at 1 μM, CTK; assay type: binding; details: 1000 nM, read-out: Percent Control
T17 construct: purchased Eurofins DiscoverX KINOMEscan
Excerpt: as §2

[19] = molecular target: T18, PAK6 (Homo sapiens, UniProt Q9NQU5); assay: KINOMEscan at 1 μM, PAK6; assay type: binding; details: 1000 nM, read-out: Percent Control
T18 construct: purchased Eurofins DiscoverX KINOMEscan
Excerpt: as §2

[20] = molecular target: T19, CAMK2B (Homo sapiens, UniProt Q13554); assay: KINOMEscan at 1 μM, CAMK2B; assay type: binding; details: 1000 nM, read-out: Percent Control
T19 construct: purchased Eurofins DiscoverX KINOMEscan
Excerpt: as §2

[21] = molecular target: T20, MYLK (Homo sapiens, UniProt Q15746); assay: KINOMEscan at 1 μM, MYLK; assay type: binding; details: 1000 nM, read-out: Percent Control
T20 construct: purchased Eurofins DiscoverX KINOMEscan
Excerpt: as §2

[22] = molecular target: T21, DAPK2 (Homo sapiens, UniProt Q9UIK4); assay: KINOMEscan at 1 μM, DAPK2; assay type: binding; details: 1000 nM, read-out: Percent Control
T21 construct: purchased Eurofins DiscoverX KINOMEscan
T21 sequence (Q9UIK4 whole entry): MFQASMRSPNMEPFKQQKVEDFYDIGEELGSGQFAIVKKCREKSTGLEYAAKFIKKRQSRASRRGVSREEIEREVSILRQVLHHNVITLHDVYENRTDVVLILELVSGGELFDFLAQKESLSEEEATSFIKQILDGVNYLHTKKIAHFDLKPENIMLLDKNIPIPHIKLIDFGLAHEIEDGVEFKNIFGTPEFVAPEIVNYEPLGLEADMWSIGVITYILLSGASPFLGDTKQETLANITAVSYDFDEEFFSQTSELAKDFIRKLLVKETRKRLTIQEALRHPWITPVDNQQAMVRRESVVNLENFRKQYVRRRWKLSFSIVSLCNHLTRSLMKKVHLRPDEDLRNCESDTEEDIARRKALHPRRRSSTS
Excerpt: as §2

[23] = molecular target: T22, TAOK2 (Homo sapiens, UniProt Q9UL54); assay: KINOMEscan at 1 μM, TAOK2; assay type: binding; details: 1000 nM, read-out: Percent Control
T22 construct: purchased Eurofins DiscoverX KINOMEscan
Excerpt: as §2

[24] = system: FLT3(ITD,F691L); assay: KINOMEscan at 1 μM, FLT3(ITD,F691L); assay type: binding, human; details: 1000 nM
Excerpt: as §2

[25] = molecular target: T23, LZK (Homo sapiens, UniProt O43283); assay: KINOMEscan at 1 μM, LZK; assay type: binding; details: 1000 nM, read-out: Percent Control
T23 construct: purchased Eurofins DiscoverX KINOMEscan
T23 sequence (O43283 whole entry): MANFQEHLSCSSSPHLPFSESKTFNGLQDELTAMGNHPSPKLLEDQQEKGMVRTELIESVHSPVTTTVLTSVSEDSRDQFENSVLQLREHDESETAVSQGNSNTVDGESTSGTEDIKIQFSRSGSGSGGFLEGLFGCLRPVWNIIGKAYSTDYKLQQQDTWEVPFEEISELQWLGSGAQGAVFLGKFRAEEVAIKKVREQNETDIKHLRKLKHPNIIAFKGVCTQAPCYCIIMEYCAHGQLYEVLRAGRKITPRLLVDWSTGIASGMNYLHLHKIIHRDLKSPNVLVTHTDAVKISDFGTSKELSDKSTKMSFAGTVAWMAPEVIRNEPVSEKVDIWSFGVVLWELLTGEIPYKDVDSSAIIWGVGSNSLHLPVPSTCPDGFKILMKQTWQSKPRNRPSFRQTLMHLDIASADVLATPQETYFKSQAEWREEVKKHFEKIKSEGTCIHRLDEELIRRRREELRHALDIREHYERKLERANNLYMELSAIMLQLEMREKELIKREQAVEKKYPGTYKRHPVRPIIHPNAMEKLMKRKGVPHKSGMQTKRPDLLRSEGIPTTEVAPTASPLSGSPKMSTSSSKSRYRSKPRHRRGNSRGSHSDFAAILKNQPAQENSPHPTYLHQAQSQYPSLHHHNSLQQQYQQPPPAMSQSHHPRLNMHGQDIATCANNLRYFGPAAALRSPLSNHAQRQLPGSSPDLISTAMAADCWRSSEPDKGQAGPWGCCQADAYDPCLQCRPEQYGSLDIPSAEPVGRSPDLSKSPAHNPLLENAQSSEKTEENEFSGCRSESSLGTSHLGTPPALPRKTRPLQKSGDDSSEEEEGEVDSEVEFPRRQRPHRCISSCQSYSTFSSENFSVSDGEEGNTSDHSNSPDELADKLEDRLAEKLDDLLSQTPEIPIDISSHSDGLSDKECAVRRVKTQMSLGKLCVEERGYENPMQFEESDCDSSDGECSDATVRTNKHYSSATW
Excerpt: as §2

[26] = molecular target: T24, CAMK2G (Homo sapiens, UniProt Q13555); assay: KINOMEscan at 1 μM, CAMK2G; assay type: binding; details: 1000 nM, read-out: Percent Control
T24 construct: purchased Eurofins DiscoverX KINOMEscan
Excerpt: as §2

[27] = molecular target: T25, HIPK4 (Homo sapiens, UniProt Q8NE63); assay: KINOMEscan at 1 μM, HIPK4; assay type: binding; details: 1000 nM, read-out: Percent Control
T25 construct: purchased Eurofins DiscoverX KINOMEscan
Excerpt: as §2

[28] = molecular target: T26, RSK3(Kin.Dom.2-C-terminal) (Homo sapiens, UniProt Q15349); assay: KINOMEscan at 1 μM, RSK3(Kin.Dom.2-C-terminal); assay type: binding; details: 1000 nM, read-out: Percent Control
T26 construct: RSK3(Kin.Dom.2-C-terminal); purchased Eurofins DiscoverX KINOMEscan
Excerpt: as §2

[29] = molecular target: T27, TNNI3K (Homo sapiens, UniProt Q59H18); assay: KINOMEscan at 1 μM, TNNI3K; assay type: binding; details: 1000 nM, read-out: Percent Control
T27 construct: purchased Eurofins DiscoverX KINOMEscan
Excerpt: as §2

[30] = molecular target: T28, ABL1(F317L)-nonphosphorylated (Homo sapiens, UniProt P00519, F317L); assay: KINOMEscan at 1 μM, ABL1(F317L)-nonphosphorylated; assay type: binding; details: 1000 nM, read-out: Percent Control
T28 construct: purchased Eurofins DiscoverX KINOMEscan
Excerpt: as §2

[31] = molecular target: T29, ABL2 (Homo sapiens, UniProt P42684); assay: KINOMEscan at 1 μM, ABL2; assay type: binding; details: 1000 nM, read-out: Percent Control
T29 construct: purchased Eurofins DiscoverX KINOMEscan
Excerpt: as §2

[32] = molecular target: T30, BRSK2 (Homo sapiens, UniProt Q8IWQ3); assay: KINOMEscan at 1 μM, BRSK2; assay type: binding; details: 1000 nM, read-out: Percent Control
T30 construct: purchased Eurofins DiscoverX KINOMEscan
Excerpt: as §2

[33] = molecular target: T31, DCAMKL2 (Homo sapiens, UniProt Q8N568); assay: KINOMEscan at 1 μM, DCAMKL2; assay type: binding; details: 1000 nM, read-out: Percent Control
T31 construct: purchased Eurofins DiscoverX KINOMEscan
Excerpt: as §2

[34] = molecular target: T32, LYN (Homo sapiens, UniProt P07948); assay: KINOMEscan binding assay at 1 μM, LYN; details: Compound Concentration 1000 nM; read-out: Percent Control
T32 construct: purchased Eurofins DiscoverX KINOMEscan
Excerpt: as §2

[35] = molecular target: T33, PCTK3 (Homo sapiens, UniProt Q07002); assay: KINOMEscan binding assay at 1 μM, PCTK3; details: Compound Concentration 1000 nM; read-out: Percent Control
T33 construct: purchased Eurofins DiscoverX KINOMEscan
Excerpt: as §2

## Cc1cccc(-c2cnc3occ(-c4ccc(C(=O)O)c(C5CCCC5)c4)c3c2)c1 [SGC-CAMKK2-1 (YL-36)]
[1]
  remaining binding at 1 µM: 55%
[2]
  remaining binding at 1 µM: 85%
[3]
  remaining binding at 1 µM: 86%
[4]
  remaining binding at 1 µM: 88%
[5]
  Percent Control: 88%
[6]
  remaining binding at 1 µM: 98%
[7]
  remaining binding at 1 µM: 99%
[8]
  remaining binding at 1 µM: 99%
[9]
  remaining binding at 1 µM: 100%
[10]
  remaining binding at 1 µM: 100%
[11]
  remaining binding at 1 µM: 100%
[12]
  remaining binding at 1 µM: 100%
[13]
  remaining binding at 1 µM: 100%
[14]
  remaining binding at 1 µM: 100%
[15]
  remaining binding at 1 µM: 100%
[16]
  remaining binding at 1 µM: 100%

## O=C(O)c1ccc(-c2coc3ncc(-c4ccccc4)cc23)cc1Cl [SGC-CAMKK2-1N (UNC-YL-83)]
[17]
  remaining binding at 1 µM: 40%
[18]
  remaining binding at 1 µM: 63%
[19]
  remaining binding at 1 µM: 63%
[20]
  remaining binding at 1 µM: 69%
[21]
  remaining binding at 1 µM: 69%
[22]
  remaining binding at 1 µM: 70%
[23]
  remaining binding at 1 µM: 78%
[24]
  Percent Control: 81
[25]
  remaining binding at 1 µM: 81%
[26]
  remaining binding at 1 µM: 85%
[27]
  remaining binding at 1 µM: 89%
[28]
  remaining binding at 1 µM: 91%
[29]
  remaining binding at 1 µM: 95%
[30]
  remaining binding at 1 µM: 100%
[31]
  remaining binding at 1 µM: 100%
[32]
  remaining binding at 1 µM: 100%
[33]
  remaining binding at 1 µM: 100%
[34]
  remaining binding at 1 µM: 100%
[35]
  remaining binding at 1 µM: 100%
